Consider one compound from patent US9403843B2, “Cysteine protease inhibitors and uses thereof” (The Trustees of Columbia University in the City of New York, priority 2012, dated 2016).

Test [1] has as its target papain (Carica papaya (Papaya), UniProt P00784). The test is described as follows: biochemical. The format is biochemical.
Test [2] addresses Full length porcine calpain (Sus scrofa (Pig), UniProt P35750). The test is described as follows: Calpain inhibition kinetics studies (Suc-LLVY-AMC substrate). The class given is biochemical.
For test [3], the system named is Cal1cat vs CathB. The test is described as follows: Competition assay for Cal1 vs CathB using the biotinylated epoxide probe. The class given is binding, rat.
Test [4] deals with full-length human Cal1 (Homo sapiens (Human), UniProt P07384). The test is described as follows: Calpain inhibition FRET assay. The class given is biochemical. Conditions: Table 3, 20 min incubation, FRET substrate.
Sequence of full-length human Cal1 (P07384 whole entry): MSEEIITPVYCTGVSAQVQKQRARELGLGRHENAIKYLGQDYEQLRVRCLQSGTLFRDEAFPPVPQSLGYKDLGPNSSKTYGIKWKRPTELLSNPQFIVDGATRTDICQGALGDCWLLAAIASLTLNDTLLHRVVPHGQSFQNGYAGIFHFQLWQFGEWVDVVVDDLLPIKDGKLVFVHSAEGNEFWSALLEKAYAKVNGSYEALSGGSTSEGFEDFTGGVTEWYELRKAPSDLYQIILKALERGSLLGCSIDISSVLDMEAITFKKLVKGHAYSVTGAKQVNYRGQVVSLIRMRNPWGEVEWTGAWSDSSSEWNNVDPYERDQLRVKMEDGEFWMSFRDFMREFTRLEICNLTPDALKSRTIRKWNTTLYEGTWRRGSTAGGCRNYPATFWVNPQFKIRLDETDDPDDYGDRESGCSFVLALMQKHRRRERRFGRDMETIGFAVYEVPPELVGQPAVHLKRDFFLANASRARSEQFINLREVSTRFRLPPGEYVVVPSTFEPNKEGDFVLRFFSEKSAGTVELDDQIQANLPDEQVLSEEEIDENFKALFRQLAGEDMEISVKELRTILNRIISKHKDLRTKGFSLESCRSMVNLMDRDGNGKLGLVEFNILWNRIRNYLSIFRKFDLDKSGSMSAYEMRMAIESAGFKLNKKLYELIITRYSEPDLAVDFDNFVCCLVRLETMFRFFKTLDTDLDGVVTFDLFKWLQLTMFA
Sequence of full-length human Cal1 (P04632 whole entry partner): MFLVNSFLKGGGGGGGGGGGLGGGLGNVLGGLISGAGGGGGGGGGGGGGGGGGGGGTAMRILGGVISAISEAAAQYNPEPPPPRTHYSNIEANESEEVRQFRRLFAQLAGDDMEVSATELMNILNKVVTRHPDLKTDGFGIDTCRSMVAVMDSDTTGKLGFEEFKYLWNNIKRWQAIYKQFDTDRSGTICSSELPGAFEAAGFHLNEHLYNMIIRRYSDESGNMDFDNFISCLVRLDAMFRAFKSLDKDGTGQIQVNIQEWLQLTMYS
The mark [5] stands for this setting: ki/Ki calculated relative to E-64.
[6] abbreviates: mean ± S.D. of triplicate experiments.

One may read the IC50 as the concentration that inhibits the measured activity by half.

Sequence of Full length porcine calpain (P35750 whole entry): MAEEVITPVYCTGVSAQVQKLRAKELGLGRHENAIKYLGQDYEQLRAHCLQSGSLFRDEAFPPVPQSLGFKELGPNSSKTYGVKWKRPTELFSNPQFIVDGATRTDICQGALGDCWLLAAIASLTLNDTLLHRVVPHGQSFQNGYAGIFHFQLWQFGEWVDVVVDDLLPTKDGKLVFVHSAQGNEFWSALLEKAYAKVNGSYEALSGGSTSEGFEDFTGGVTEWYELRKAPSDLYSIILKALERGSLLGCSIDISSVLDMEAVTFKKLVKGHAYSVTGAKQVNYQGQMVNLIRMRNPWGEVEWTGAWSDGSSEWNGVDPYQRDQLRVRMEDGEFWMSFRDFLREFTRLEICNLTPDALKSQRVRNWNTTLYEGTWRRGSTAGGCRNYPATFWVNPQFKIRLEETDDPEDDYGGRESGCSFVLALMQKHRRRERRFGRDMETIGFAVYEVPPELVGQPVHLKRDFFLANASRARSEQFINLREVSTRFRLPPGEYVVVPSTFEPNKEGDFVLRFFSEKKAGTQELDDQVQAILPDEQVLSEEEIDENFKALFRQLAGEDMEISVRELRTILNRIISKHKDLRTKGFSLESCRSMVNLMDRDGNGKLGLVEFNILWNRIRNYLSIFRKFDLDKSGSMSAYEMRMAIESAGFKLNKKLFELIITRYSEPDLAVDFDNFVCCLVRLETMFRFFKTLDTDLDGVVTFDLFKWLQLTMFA
Sequence of Full length porcine calpain (P04574 whole entry partner): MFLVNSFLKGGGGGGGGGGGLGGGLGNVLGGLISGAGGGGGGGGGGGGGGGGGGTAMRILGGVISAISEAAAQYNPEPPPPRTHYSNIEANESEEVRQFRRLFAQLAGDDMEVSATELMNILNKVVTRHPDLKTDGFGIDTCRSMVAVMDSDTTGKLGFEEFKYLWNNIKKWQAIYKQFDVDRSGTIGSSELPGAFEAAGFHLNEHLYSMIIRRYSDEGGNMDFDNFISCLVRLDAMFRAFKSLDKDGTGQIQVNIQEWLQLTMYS
Sequence of papain (P00784 134-345): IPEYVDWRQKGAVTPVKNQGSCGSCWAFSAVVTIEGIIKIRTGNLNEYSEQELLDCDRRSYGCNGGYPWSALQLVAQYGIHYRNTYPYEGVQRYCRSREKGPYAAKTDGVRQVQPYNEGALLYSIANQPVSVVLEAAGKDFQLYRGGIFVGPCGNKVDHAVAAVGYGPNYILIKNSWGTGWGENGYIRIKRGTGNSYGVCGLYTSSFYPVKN

For `O=C(O)C1OC1C(=O)N[C@@H](Cc1cscn1)C(=O)Nc1nc(-c2ccc(F)cc2)cs1` (stereo in doubt) [Compound 33, (2S,3S)-3-((S)-1-(4-(4-fluorophenyl)thiazol-2-ylamino)-1-oxo-3-(thiazol-4-yl)propan-2-ylcarbamoyl)oxirane-2-carboxylic acid], the Ki stood at 5300 nM in test [1] (apparent equilibrium constant, read-out: K1 Papain) and 2600 nM in test [2] (apparent equilibrium constant, full length Cal1, read-out: K1 Calpain1). Further, the “ki Papain” value in test [1] (inhibition rate) came to 14.8 s⁻¹. Besides, the “rel Papain” value in test [1] (setting [5]) is listed as 0.50. Besides, in test [1] (setting [6]), the “10^−5 × ki/Ki Papain” value was 27.9 ± 4.7. Further, in test [2] (inhibition rate, full length Cal1), the “ki Calpain1” value was 0.08 s⁻¹. Further, the “relative selectivity for inhibition of Cal1 over papain (in words)” value in test [2] (ki/Ki as measure, compared with E-64) is “Cal1 selectivity”. Moreover, in test [2] (setting [5]), the “rel Calpain1” value is 0.98. Also, the “10^−4 × ki/Ki Calpain1” value in test [2] (setting [6]) turned out to be 2.96 ± 0.14. In test [3] (10 min pre-treatment, then 20 min with 27), the “blocking of active site modification by probe 27 (western blot signal)” value is given as “little change in the CathB signal”. The “selectivity for Cal1cat (ratio of Cal1cat versus CathB band intensities)” value in test [3] (ratio for probe 27 alone set as 1.0, inhibitor 5 μM) is listed as “highest selectivity”. This compound returned an IC50 in test [4] of 100 nM.
